According to publication PMC3006138, “Fexinidazole – A New Oral Nitroimidazole Drug Candidate Entering Clinical Development for the Treatment of Sleeping Sickness” (PLoS Neglected Tropical Diseases, 2010):

Key:
[1] = Hepatocyte intrinsic clearance and metabolite profile; assay type: in vitro ADME, mouse; settings: male, CD-1, mouse, cryopreserved hepatocytes, 1 µM
Protocol: Fexinidazole was incubated with cryopreserved hepatocytes from male CD-1 mice, male Sprague Dawley rats, male beagle dogs, male cynomolgus monkeys, and from pooled white or African-American human donor samples (purchased commercially), at concentrations of 1 µM and 10 µM. […] The incubated samples were analyzed by LC-MS after extraction into acetonitrile.
A quality control analysis of fexinidazole was performed via 1H-NMR in DMSO and LC- […]
provided by the Swiss Tropical Institute (Basel, Switzerland).
Reagents and solvents were of analytical grade and obtained from Sigma-Aldrich (St. Louis, […]
Cryopreserved hepatocytes from the male CD1 mouse, lot CSI; male Sprague Dawley rat, lot LPL; male beagle dog, lot BWX; male cynomolgus monkey, lot EHH; and pooled human samples, lot MJI, were purchased from In Vitro Technologies Inc (Baltimore, Maryland, […]
5.4. In vitro Incubations
On the day of the experiment a 10 mM stock solution of fexinidazole in DMSO was prepared and, within 3 hours, aliquots of this freshly prepared solution, after suitable dilution, were added to the incubation matrix, to reach fexinidazole final concentrations of 1 and 10 µM. The final percentage of DMSO was 0.01% in the incubation samples for the […]
On the day of experiment, the cryopreserved hepatocytes were thawed following the detailed instructions provided by the supplier.
The number of viable cells was determined using a Trypan Blue exclusion method.
5.4.1. Intrinsic Clearance Study […]
µM with mouse, rat, dog, monkey and human hepatocytes (300000 cells/mL for the mouse and 1 million cells/mL for the other species) in a final incubation volume of 0.75 mL […]
Incubations were performed in duplicate in a 48-well plate under shaking. Sampling was performed using an automatic liquid handling system (Multiprobe II EX, Packard). At 0, 1, 5, 10, 15, 20, 30, 60 and 120 minutes, 50 µL aliquots of the incubates were taken, then 80 µL of ice-cold acetonitrile and 20 µL of 1 µM warfarin in acetonitrile (internal standard) were added, and samples centrifuged at 2000 rpm for 20 min. The supernatant was analyzed by LC-MS/MS. […]
the medium alone at t = 0 and 120 minutes.
For the determination of phase I and phase II activity of hepatocytes, 7-ethoxycoumarin (7-EC) 1 µM, and 7-hydroxycoumarin (7-HC) 30 µM were used as positive controls and incubated under the same conditions as fexinidazole. Aliquots of incubates were taken at 0, 10, 20, 30, 60 and 120 minutes and processed as fexinidazole samples.
5.4.2. Metabolite Profile Study
For metabolite profiling, fexinidazole was incubated at a concentration of 10 µM with mouse, rat, dog, monkey and human hepatocytes (300000 cells/mL for the mouse and 1 million cells/mL for the other species) in a final incubation volume of 2 mL Leibovitz L-15 […]
Aliquots of the incubation samples were taken at t = 0, 30 and 120 minutes; the metabolism was stopped by the addition of an equal volume of cold acetonitrile and the samples centrifuged at 1500 rpm for 20 min. The supernatant was stored at -20°C until analysis. Control incubations were performed with the compound in the medium alone […]
5.5. Analysis of Samples for Intrinsic Clearance Determination
The analysis of the samples for intrinsic clearance determination was performed by an LC-MS/MS method, using the following conditions:
HPLC Equipment and Conditions
HPLC system Agilent 1100 binary pump (Agilent, Palo Alto, USA)
Autosampler CTC Pal (Alfatech, San Jose, USA)
Analytical column Guard Column SB-C8 4.6 x 12.5 mm, 5 µm (Zorbax)
Column temperature ambient
Mobile phase A 10 mM ammonium formate pH 4.0: acetonitrile (95:5, v:v)
Mobile phase B 10 mM ammonium formate pH 4.0: acetonitrile (5:95, v:v) […]
Gradient conditions Step Total time (min) flow (µL/min) %A % B […]
MS Equipment and Conditions
Mass spectrometer API 4000 Triple Quadrupole (MDS-Sciex, Toronto, […]
Source Turbo Ion Spray (TIS)
Ion mode Positive for fexinidazole and 7-EC.
Negative for 7-HC, 7-HC sulphate and 7-HC glucuronide.

in vitro = settings: human
Protocol: Caco-2 [36] or MDR1-MDCK (Madin Darby canine kidney cells transfected with the human multidrug resistance MDR1 gene) cell monolayers were grown to confluence on collagen-coated, microporous, polycarbonate membranes in 12-well microtitre plates. The buffer for the donor chamber was Hanks balanced salt solution with 10 mM HEPES and 15 mM glucose at pH 7.4. The buffer in the receiver chamber contained the same with the addition of 1% bovine serum albumin (BSA). The test article was added at 5 µM in the assay buffer. […] After 2 h, duplicate aliquots were taken from the donor and receiver chambers and assayed via LC/MS. The apparent permeability and recovery were calculated using standard methods.
The objective of this study was to determine the bi-directional Caco-2 permeability and efflux limited absorption poten tial of thr ee test compoun ds. […]
4 . […] Th e test compound dosing concentrations were 5 µM in th e a ssay bu f fer . […] After two hours, a l iquot s wer e t a ken fr om th e r ecei ver an d don or cha m ber s. E a ch det erm ina ti on wa s per for m ed in dupl i cat e. Th e Lucifer Yellow flux was also measur ed for each mon olayer after bein g subjected to th e test compoun ds to en sur e n o damage was in flicted to th e cell mon olayer s durin g th e flux per iod. All samples wer e assayed by LC/MS/MS usin g electrospray ionization. Analytical conditions are outlined in Attachment I. The apparent permeability, Papp, and per cen t r ecover y wer e calculated as follows:
Papp = (dCr /dt) x Vr/(AxC) (1)
P er cen t Rec o ver y = 1 0 0 x ( ( V r x C rfi n a l ) + (Vd x Cd fi n a l ))/(Vd x C N) (2) […]
dCr /dt is th e slope of th e cumulative con cen tration in th e r eceiver compartment ver sus time in µM s -1. […]

[2] = design: method as in ref 2 (report no. 0259-2007-R); settings: oral, normalized to 1 mg/kg, previous rat study, ref 2 (report no. 0259-2007-R); cited from earlier work

Q: For `CSc1ccc(OCc2ncc([N+](=O)[O-])n2C)cc1` [Fexinidazole, 1-methyl-2-((p-(methylthio)phenoxy)methyl)-5-nitroimidazole], which half-life at 1 µM [1] is on record?
A: 1.4 min

Q: And the CLint scaled at 1 µM ([1]; read-out: CLint in vitro)?
A: > 3000 mL/min/kg

Q: What about the hepatocyte CLint at 1 µM ([1]; read-out: CLint in vitro) of the same compound?
A: 1630 µL/min/1e6 cells

Q: What about the Papp A→B at 2 h, 5 µM (in vitro; Caco-2, pH 7.4) of the same compound?
A: 57.2 ×10⁻⁶ cm/s

Q: And the Papp B→A at 2 h, 5 µM (in vitro; Caco-2, pH 7.4)?
A: 50.9 ×10⁻⁶ cm/s

Q: And the efflux ratio at 2 h, 5 µM (in vitro; Caco-2, pH 7.4)?
A: 0.9

Q: What about the recovery at 2 h, 5 µM (in vitro; Caco-2, pH 7.4, Percent Recovery A→B) of the same compound?
A: 72%

Q: What about the recovery at 2 h, 5 µM (in vitro; Caco-2, pH 7.4, Percent Recovery B→A) of the same compound?
A: 81%

Q: And the “AUC0-∞, norm” value [2]?
A: 45 ng⋅h/mL
